# Data reported in patent US20100267561A1, “HERBICIDAL PYRIDAZINONE DERIVATIVES” (priority 2007, published 2010).
# Assays:
# Assay in all cases: Test B pre-/postemergence plant response
# Type in all cases: in vivo
# [1] = tested on: giant foxtail (Setaria faberii); details: for Foxtail, Giant plant response rating: 8 g ai/ha
# Method in brief: (§1)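 Seeds were sown and sprayed preemergence, while plants at 2 to 18 cm (1- to 4-leaf stage) got postemergence sprays. Compounds were formulated in a non-phytotoxic solvent mixture with surfactant. After 13 to 15 days in a greenhouse, injury was rated visually against untreated controls, 0 (no effect) to 100 (complete control).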
# [2] = tested on: wild oat (Avena fatua)
# Method in brief: as §1
# [3] = tested on: surinam grass (Brachiaria decumbens)
# Method in brief: as §1
# [4] = tested on: woolly cupgrass (Eriochloa villosa); details: for Cupgrass, Woolly plant response rating: 8 g ai/ha
# Method in brief: as §1
# [5] = tested on: downy bromegrass (Bromus tectorum); details: for Bromegrass, Downy plant response rating: 8 g ai/ha
# Method in brief: as §1
# [6] = tested on: green foxtail (Setaria viridis); details: for Foxtail, Green plant response rating: 8 g ai/ha
# Method in brief: as §1
# [7] = tested on: goosegrass (Eleusine indica)
# Method in brief: as §1
# [8] = tested on: blackgrass (Alopecurus myosuroides); details: for Blackgrass plant response rating: 8 g ai/ha, postemergence, 0-100 scale
# Method in brief: as §1
# [9] = tested on: corn (Zea mays); details: for Corn plant response rating: 8 g ai/ha
# Method in brief: as §1
# [10] = tested on: common ragweed (Ambrosia elation)
# Method in brief: as §1
# [11] = tested on: pigweed (Amaranthus retroflexus)
# Method in brief: as §1
# [12] = tested on: lambsquarters (Chenopodium album)
# Method in brief: as §1
# [13] = tested on: morningglory (Ipomoea coccinea)
# Method in brief: as §1
# [14] = Preemergence, 16 g ai/ha, scale 0 to 100 (0 no effect, 100 complete control)
# [15] = Preemergence, 31 g ai/ha, 0 to 100 scale, 0 no effect, 100 complete control
# [16] = Preemergence, 62 g ai/ha, scale 0 to 100
# [17] = Preemergence, 8 g ai/ha, scale 0 to 100
# [18] = Postemergence, 16 g ai/ha, scale 0 to 100
# [19] = Postemergence, 31 g ai/ha, scale 0 to 100
# [20] = Postemergence, 62 g ai/ha, scale 0 to 100, 0 no effect, 100 complete control
# [21] = 8 g ai/ha, postemergence, 0-100 scale
# [22] = 16 g ai/ha, postemergence, 0-100 scale
smiles,measurement,setting,value
Cc1cc(-c2ccc(C(F)(F)F)cc2)nn1-c1c(O)c(C(C)C)nn(C)c1=O [Compound 27],"Plant response rating, Foxtail, Giant",[1]; [14],0
same,"Plant response rating, Foxtail, Giant",[1]; [15],0
same,"Plant response rating, Foxtail, Giant",[1]; [16],20
same,"Foxtail, Giant plant response rating","[1]; Preemergence, scale 0 to 100",0
same,"Plant response rating, Oat, Wild",[2]; [14],0
same,"Plant response rating, Oat, Wild",[2]; [15],50
same,"Plant response rating, Oat, Wild",[2]; [16],50
same,"Oat, Wild plant response rating",[2]; [17],0
same,"Plant response rating, Surinam Grass",[3]; [14],0
same,"Plant response rating, Surinam Grass",[3]; [15],0
same,"Plant response rating, Surinam Grass",[3]; [16],75
same,Surinam Grass plant response rating,[3]; [17],0
same,"Plant response rating, Cupgrass, Woolly",[4]; [14],0
same,"Plant response rating, Cupgrass, Woolly",[4]; [15],30
same,"Plant response rating, Cupgrass, Woolly",[4]; [16],55
same,"Cupgrass, Woolly plant response rating","[4]; Preemergence, scale 0 to 100",0
same,"Plant response rating, Bromegrass, Downy",[5]; [14],0
same,"Plant response rating, Bromegrass, Downy",[5]; [15],50
same,"Plant response rating, Bromegrass, Downy",[5]; [16],50
same,"Bromegrass, Downy plant response rating","[5]; Preemergence, scale 0 to 100",0
same,"Plant response rating, Foxtail, Green",[6]; [14],0
same,"Plant response rating, Foxtail, Green",[6]; [15],60
same,"Plant response rating, Foxtail, Green",[6]; [16],85
same,"Foxtail, Green plant response rating","[6]; Preemergence, scale 0 to 100",0
same,"Plant response rating, Goosegrass",[7]; [14],75
same,"Plant response rating, Goosegrass",[7]; [15],95
same,"Plant response rating, Goosegrass",[7]; [16],95
same,Goosegrass plant response rating,[7]; [17],0
same,"Plant response rating, Blackgrass",[8]; [14],20
same,"Plant response rating, Blackgrass",[8]; [15],50
same,"Plant response rating, Blackgrass",[8]; [16],100
same,"Plant response rating, Corn",[9]; [14],0
same,"Plant response rating, Corn",[9]; [15],75
same,"Plant response rating, Corn",[9]; [16],85
same,Corn plant response rating,"[9]; Preemergence, scale 0 to 100",0
same,"Plant response rating, Ragweed",[10]; [14],0
same,"Plant response rating, Ragweed",[10]; [15],0
same,"Plant response rating, Ragweed",[10]; [16],0
same,Ragweed plant response rating,[10]; [17],0
same,"Plant response rating, Pigweed",[11]; [14],0
same,"Plant response rating, Pigweed",[11]; [15],0
same,"Plant response rating, Pigweed",[11]; [16],0
same,Pigweed plant response rating,[11]; [17],0
same,"Plant response rating, Lambsquarters",[12]; [14],0
same,"Plant response rating, Lambsquarters",[12]; [16],0
same,Lambsquarters plant response rating,[12]; [17],0
same,"Plant response rating, Morningglory",[13]; [14],0
same,"Plant response rating, Morningglory",[13]; [15],0
same,"Plant response rating, Morningglory",[13]; [16],0
same,Morningglory plant response rating,[13]; [17],0
Cc1nn(C)c(=O)c(-n2nc(-c3ccc(Cl)cc3)cc2Cl)c1O [Compound 59],"Foxtail, Giant plant response rating","[1]; postemergence, 0-100 scale",80
same,"Plant response rating, Foxtail, Giant",[1]; [18],85
same,"Plant response rating, Foxtail, Giant",[1]; [19],90
same,"Plant response rating, Foxtail, Giant",[1]; [20],95
same,"Oat, Wild plant response rating",[2]; [21],45
same,"Plant response rating, Oat, Wild",[2]; [18],60
same,"Plant response rating, Oat, Wild",[2]; [19],70
same,"Plant response rating, Oat, Wild",[2]; [20],80
same,Surinam Grass plant response rating,[3]; [21],75
same,"Plant response rating, Surinam Grass",[3]; [18],85
same,"Plant response rating, Surinam Grass",[3]; [19],90
same,"Plant response rating, Surinam Grass",[3]; [20],100
same,"Cupgrass, Woolly plant response rating","[4]; postemergence, 0-100 scale",55
same,"Plant response rating, Cupgrass, Woolly",[4]; [18],60
same,"Plant response rating, Cupgrass, Woolly",[4]; [19],65
same,"Plant response rating, Cupgrass, Woolly",[4]; [20],85
same,"Bromegrass, Downy plant response rating","[5]; postemergence, 0-100 scale",0
same,"Plant response rating, Bromegrass, Downy",[5]; [18],5
same,"Plant response rating, Bromegrass, Downy",[5]; [19],5
same,"Plant response rating, Bromegrass, Downy",[5]; [20],10
same,"Foxtail, Green plant response rating","[6]; postemergence, 0-100 scale",50
same,"Plant response rating, Foxtail, Green",[6]; [18],90
same,"Plant response rating, Foxtail, Green",[6]; [19],90
same,"Plant response rating, Foxtail, Green",[6]; [20],95
same,Goosegrass plant response rating,[7]; [21],0
same,"Plant response rating, Goosegrass",[7]; [18],0
same,"Plant response rating, Goosegrass",[7]; [19],0
same,"Plant response rating, Goosegrass",[7]; [20],0
same,Blackgrass plant response rating,[8],0
same,"Plant response rating, Blackgrass",[8]; [18],60
same,"Plant response rating, Blackgrass",[8]; [19],90
same,"Plant response rating, Blackgrass",[8]; [20],90
same,Corn plant response rating,"[9]; postemergence, 0-100 scale",0
same,"Plant response rating, Corn",[9]; [18],85
same,"Plant response rating, Corn",[9]; [19],85
same,"Plant response rating, Corn",[9]; [20],90
same,Ragweed plant response rating,[10]; [21],0
same,"Plant response rating, Ragweed",[10]; [18],0
same,"Plant response rating, Ragweed",[10]; [19],0
same,"Plant response rating, Ragweed",[10]; [20],0
same,Pigweed plant response rating,[11]; [21],0
same,"Plant response rating, Pigweed",[11]; [18],0
same,"Plant response rating, Pigweed",[11]; [19],0
same,"Plant response rating, Pigweed",[11]; [20],0
same,Lambsquarters plant response rating,[12]; [21],0
same,"Plant response rating, Lambsquarters",[12]; [18],0
same,"Plant response rating, Lambsquarters",[12]; [19],0
same,"Plant response rating, Lambsquarters",[12]; [20],0
same,Morningglory plant response rating,[13]; [21],0
same,"Plant response rating, Morningglory",[13]; [18],0
same,"Plant response rating, Morningglory",[13]; [19],0
same,"Plant response rating, Morningglory",[13]; [20],0
CCc1cc(-c2ccc(Br)cc2)nn1-c1c(O)cnn(CC(F)(F)F)c1=O [Compound 73],"Foxtail, Giant plant response rating","[1]; postemergence, 0-100 scale",30
same,"Plant response rating, Foxtail, Giant",[1]; [18],70
same,"Plant response rating, Foxtail, Giant",[1]; [19],90
same,"Plant response rating, Foxtail, Giant",[1]; [20],100
same,"Oat, Wild plant response rating",[2]; [21],70
same,"Oat, Wild plant response rating",[2]; [22],95
same,"Plant response rating, Oat, Wild",[2]; [19],100
same,"Plant response rating, Oat, Wild",[2]; [20],100
same,Surinam Grass plant response rating,[3]; [21],60
same,Surinam Grass plant response rating,[3]; [22],90
same,"Plant response rating, Surinam Grass",[3]; [19],90
same,"Plant response rating, Surinam Grass",[3]; [20],100
same,"Cupgrass, Woolly plant response rating","[4]; postemergence, 0-100 scale",85
same,"Plant response rating, Cupgrass, Woolly",[4]; [18],98
same,"Plant response rating, Cupgrass, Woolly",[4]; [19],100
same,"Plant response rating, Cupgrass, Woolly",[4]; [20],100
same,"Bromegrass, Downy plant response rating","[5]; postemergence, 0-100 scale",0
same,"Plant response rating, Bromegrass, Downy",[5]; [18],0
same,"Plant response rating, Bromegrass, Downy",[5]; [19],30
same,"Plant response rating, Bromegrass, Downy",[5]; [20],60
same,"Foxtail, Green plant response rating","[6]; postemergence, 0-100 scale",40
same,"Plant response rating, Foxtail, Green",[6]; [18],70
same,"Plant response rating, Foxtail, Green",[6]; [19],70
same,"Plant response rating, Foxtail, Green",[6]; [20],100
same,Goosegrass plant response rating,[7]; [21],70
same,Goosegrass plant response rating,[7]; [22],90
same,"Plant response rating, Goosegrass",[7]; [19],90
same,"Plant response rating, Goosegrass",[7]; [20],90
same,Blackgrass plant response rating,[8],60
same,"Plant response rating, Blackgrass",[8]; [18],100
same,"Plant response rating, Blackgrass",[8]; [19],100
same,"Plant response rating, Blackgrass",[8]; [20],100
same,Corn plant response rating,"[9]; postemergence, 0-100 scale",95
same,"Plant response rating, Corn",[9]; [18],100
same,"Plant response rating, Corn",[9]; [19],100
same,"Plant response rating, Corn",[9]; [20],100
same,Ragweed plant response rating,[10]; [21],0
same,Ragweed plant response rating,[10]; [22],0
same,"Plant response rating, Ragweed",[10]; [19],0
same,"Plant response rating, Ragweed",[10]; [20],0
same,Pigweed plant response rating,[11]; [21],0
same,Pigweed plant response rating,[11]; [22],0
same,"Plant response rating, Pigweed",[11]; [19],0
same,"Plant response rating, Pigweed",[11]; [20],0
same,Lambsquarters plant response rating,[12]; [21],0
same,Lambsquarters plant response rating,[12]; [22],0
same,"Plant response rating, Lambsquarters",[12]; [19],0
same,"Plant response rating, Lambsquarters",[12]; [20],0
same,Morningglory plant response rating,[13]; [21],0
same,Morningglory plant response rating,[13]; [22],0
same,"Plant response rating, Morningglory",[13]; [19],0
same,"Plant response rating, Morningglory",[13]; [20],0
